According to patent US11542304B2, “Multimeric bicyclic peptide ligands” (BicycleTx Limited, priority 2018, dated 2023):
Starred links: 1 amine or outer side, 2 acyl side, 3 side chain; linkers in the order of their positions; H or OH if unused. Positions of bridges follow the written chain, without caps; N, C: chain ends. Non-standard residues stand in square brackets, D forms with d. Chains are numbered I, II in the order given. X2 = O=C(CCOCCN(CCOCCC(=O)NCCOCCOCCOCCOCCOCCOCCOCCOCCOCCOCCOCCOCCOCCOCCOCCOCCOCCOCCOCCOCCOCCOCCOCCn1nnc2c1CCC1C(CC2)C1COC(=O)[*:2])CCOCCC(=O)NCCOCCOCCOCCOCCOCCOCCOCCOCCOCCOCCOCCOCCOCCOCCOCCOCCOCCOCCOCCOCCOCCOCCOCCn1nnc2c1CCC1C(CC2)C1COC(=O)[*:3])NCCOCCOCCOCCOCCOCCOCCOCCOCCOCCOCCOCCOCCOCCOCCOCCOCCOCCOCCOCCOCCOCCOCCOCCn1nnc2c1CCC1C(CC2)C1COC(=O)[*:1]; X3 = O=C(CCOCCN(CCOCCC(=O)NCCOCCOCCOCCOCCOCCOCCOCCOCCOCCOCCn1nnc2c1CCC1C(CC2)C1COC(=O)[*:2])CCOCCC(=O)NCCOCCOCCOCCOCCOCCOCCOCCOCCOCCOCCn1nnc2c1CCC1C(CC2)C1COC(=O)[*:3])NCCOCCOCCOCCOCCOCCOCCOCCOCCOCCOCCn1nnc2c1CCC1C(CC2)C1COC(=O)[*:1]; TATA = O=C(CC[*:1])N1CN(C(=O)CC[*:2])CN(C(=O)CC[*:3])C1; Nle = CCCC[C@H](N)C(=O)O

Target: CD137 (Homo sapiens, UniProt Q07011)
Assay: CD137 Promega reporter cell activity assay (NF-κB luciferase in Jurkat cells)
Details: for Average Fold EC50 Improvement relative to CD137L: Average EC50 for CD137L = 14.2 nM; for Average Relative Fold Induction relative to CD137L: Average fold induction for CD137L = 4.0
Description: CD137 binding multimers were evaluated for CD137 using a Reporter cell activity assay that uses NF-κB luciferase luminescence as a read-out of CD137 activation in Jurkat cells. […] Samples were diluted at concentration expected to give the maximum fold induction and then titrated down in 1/3 dilution series or 1/10 dilution series in a sterile 96 well-plate. […] 50 μl cells were added per well to white cell culture plates.
Cells were co-incubated together with agonists for 6 h at 37° C., 5% CO2. After 6 h Bio-Glo™ was thawed and the assay developed at room-temperature. 75 ul Bio-Glo™ was added per well and incubated for 5-10 min. Luciferase signal was read on a Pherastar plate-reader using MARS program. Data was analysed by transforming the data to x=log (X), then plotting log (agonist) vs. response variable slope (4 parameters) to calculate EC50 values.

Sequence of CD137 (Q07011 24-255): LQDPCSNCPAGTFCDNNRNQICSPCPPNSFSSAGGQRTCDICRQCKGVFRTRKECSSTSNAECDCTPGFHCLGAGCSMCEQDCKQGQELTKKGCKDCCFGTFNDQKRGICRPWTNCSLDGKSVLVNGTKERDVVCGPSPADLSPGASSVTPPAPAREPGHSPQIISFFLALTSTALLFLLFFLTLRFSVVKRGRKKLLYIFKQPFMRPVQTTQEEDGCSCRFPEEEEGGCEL

Row | Molecule | Average Fold EC50 Improvement relative to CD137L | Average Relative Fold Induction relative to CD137L
1 | CCCC[C@@H]1NC(=O)[C@H](Cc2ccc(O)cc2)NC(=O)[C@@H]2CCCN2C(=O)[C@H](CC(=O)O)NC(=O)[C@H](C)NC(=O)[C@H](CCCCNC(=O)OCC2C3CCc4nnn(CCOCCOCCOCCOCCOCCOCCOCCOCCOCCOCCOCCOCCOCCOCCOCCOCCOCCOCCOCCOCCOCCOCCOCCNC(=O)CCOCC(COCCC(=O)NCCOCCOCCOCCOCCOCCOCCOCCOCCOCCOCCOCCOCCOCCOCCOCCOCCOCCOCCOCCOCCOCCOCCOCCn5nnc6c5CCC5C(CC6)C5COC(=O)NCCCC[C@@H]5NC(=O)[C@@H]6CSCCC(=O)N7CN(CN(C7)C(=O)CCSC[C@@H](C(=O)N[C@@H](C)C(N)=O)NC(=O)[C@H](CCCC)NC(=O)[C@H](Cc7ccc(O)cc7)NC(=O)[C@@H]7CCCN7C(=O)[C@H](CC(=O)O)NC(=O)[C@H](C)NC5=O)C(=O)CCSC[C@H](NC(=O)[C@H](C)NC(C)=O)C(=O)N[C@@H]([C@@H](C)CC)C(=O)N[C@@H](CCC(=O)O)C(=O)N[C@@H](CCC(=O)O)C(=O)NCC(=O)N[C@@H](CCC(N)=O)C(=O)N[C@@H](Cc5ccc(O)cc5)C(=O)N6)(COCCC(=O)NCCOCCOCCOCCOCCOCCOCCOCCOCCOCCOCCOCCOCCOCCOCCOCCOCCOCCOCCOCCOCCOCCOCCOCCn5nnc6c5CCC5C(CC6)C5COC(=O)NCCCC[C@@H]5NC(=O)[C@@H]6CSCCC(=O)N7CN(CN(C7)C(=O)CCSC[C@@H](C(=O)N[C@@H](C)C(N)=O)NC(=O)[C@H](CCCC)NC(=O)[C@H](Cc7ccc(O)cc7)NC(=O)[C@@H]7CCCN7C(=O)[C@H](CC(=O)O)NC(=O)[C@H](C)NC5=O)C(=O)CCSC[C@H](NC(=O)[C@H](C)NC(C)=O)C(=O)N[C@@H]([C@@H](C)CC)C(=O)N[C@@H](CCC(=O)O)C(=O)N[C@@H](CCC(=O)O)C(=O)NCC(=O)N[C@@H](CCC(N)=O)C(=O)N[C@@H](Cc5ccc(O)cc5)C(=O)N6)COCCC(=O)NCCOCCOCCOCCOCCOCCOCCOCCOCCOCCOCCOCCOCCOCCOCCOCCOCCOCCOCCOCCOCCOCCOCCOCCn5nnc6c5CCC5C(CC6)C5COC(=O)NCCCC[C@@H]5NC(=O)[C@@H]6CSCCC(=O)N7CN(CN(C7)C(=O)CCSC[C@@H](C(=O)N[C@@H](C)C(N)=O)NC(=O)[C@H](CCCC)NC(=O)[C@H](Cc7ccc(O)cc7)NC(=O)[C@@H]7CCCN7C(=O)[C@H](CC(=O)O)NC(=O)[C@H](C)NC5=O)C(=O)CCSC[C@H](NC(=O)[C@H](C)NC(C)=O)C(=O)N[C@@H]([C@@H](C)CC)C(=O)N[C@@H](CCC(=O)O)C(=O)N[C@@H](CCC(=O)O)C(=O)NCC(=O)N[C@@H](CCC(N)=O)C(=O)N[C@@H](Cc5ccc(O)cc5)C(=O)N6)c4CCC32)NC(=O)[C@@H]2CSCCC(=O)N3CN(CN(C3)C(=O)CCSC[C@@H](C(=O)N[C@@H](C)C(N)=O)NC1=O)C(=O)CCSC[C@H](NC(=O)[C@H](C)NC(C)=O)C(=O)N[C@@H]([C@@H](C)CC)C(=O)N[C@@H](CCC(=O)O)C(=O)N[C@@H](CCC(=O)O)C(=O)NCC(=O)N[C@@H](CCC(N)=O)C(=O)N[C@@H](Cc1ccc(O)cc1)C(=O)N2 (stereo partly shown) [BCY8148] | 18.71 | 1.20
2 | CCCC[C@@H]1NC(=O)[C@H](Cc2ccc(O)cc2)NC(=O)[C@@H]2CCCN2C(=O)[C@H](CC(=O)O)NC(=O)[C@H](C)NC(=O)[C@H](Cc2ccccc2)NC(=O)[C@@H]2CSCCC(=O)N3CN(CN(C3)C(=O)CCSC[C@@H](C(=O)N[C@@H](C)C(N)=O)NC1=O)C(=O)CCSC[C@H](NC(=O)[C@H](C)NC(C)=O)C(=O)N[C@@H]([C@@H](C)CC)C(=O)N[C@@H](CCC(=O)O)C(=O)N[C@@H](CCC(=O)O)C(=O)N[C@H](CCCCNC(=O)OCC1C3CCc4nnn(CCOCCOCCOCCOCCOCCOCCOCCOCCOCCOCCOCCOCCOCCOCCOCCOCCOCCOCCOCCOCCOCCOCCOCCNC(=O)CCOCCN(CCOCCC(=O)NCCOCCOCCOCCOCCOCCOCCOCCOCCOCCOCCOCCOCCOCCOCCOCCOCCOCCOCCOCCOCCOCCOCCOCCn5nnc6c5CCC5C(CC6)C5COC(=O)NCCCC[C@H]5NC(=O)[C@H](CCC(=O)O)NC(=O)[C@H](CCC(=O)O)NC(=O)[C@H]([C@@H](C)CC)NC(=O)[C@@H](NC(=O)[C@H](C)NC(C)=O)CSCCC(=O)N6CN7CN(C6)C(=O)CCSC[C@H](NC(=O)[C@H](Cc6ccc(O)cc6)NC(=O)[C@H](CCC(N)=O)NC5=O)C(=O)N[C@@H](Cc5ccccc5)C(=O)N[C@@H](C)C(=O)N[C@@H](CC(=O)O)C(=O)N5CCC[C@H]5C(=O)N[C@@H](Cc5ccc(O)cc5)C(=O)N[C@@H](CCCC)C(=O)N[C@H](C(=O)N[C@@H](C)C(N)=O)CSCCC7=O)CCOCCC(=O)NCCOCCOCCOCCOCCOCCOCCOCCOCCOCCOCCOCCOCCOCCOCCOCCOCCOCCOCCOCCOCCOCCOCCOCCn5nnc6c5CCC5C(CC6)C5COC(=O)NCCCC[C@H]5NC(=O)[C@H](CCC(=O)O)NC(=O)[C@H](CCC(=O)O)NC(=O)[C@H]([C@@H](C)CC)NC(=O)[C@@H](NC(=O)[C@H](C)NC(C)=O)CSCCC(=O)N6CN7CN(C6)C(=O)CCSC[C@H](NC(=O)[C@H](Cc6ccc(O)cc6)NC(=O)[C@H](CCC(N)=O)NC5=O)C(=O)N[C@@H](Cc5ccccc5)C(=O)N[C@@H](C)C(=O)N[C@@H](CC(=O)O)C(=O)N5CCC[C@H]5C(=O)N[C@@H](Cc5ccc(O)cc5)C(=O)N[C@@H](CCCC)C(=O)N[C@H](C(=O)N[C@@H](C)C(N)=O)CSCCC7=O)c4CCC31)C(=O)N[C@@H](CCC(N)=O)C(=O)N[C@@H](Cc1ccc(O)cc1)C(=O)N2 (stereo partly shown) [BCY8103] | 188.34 | 0.91
3 | I: Ac-ACIEEGQYCKADPY[Nle]CA-NH2 / II: Ac-ACIEEGQYCKADPY[Nle]CA-NH2 / III: Ac-ACIEEGQYCKADPY[Nle]CA-NH2 (linker I:2-I:9-I:16, II:2-II:9-II:16, III:2-III:9-III:16 via TATA; linker I:10-II:10-III:10 via X3) [BCY8145] | 5.93 | 0.95
4 | I: Ac-ACIEEGQYCKADPY[Nle]CA-NH2 / II: Ac-ACIEEGQYCKADPY[Nle]CA-NH2 / III: Ac-ACIEEGQYCKADPY[Nle]CA-NH2 (linker I:2-I:9-I:16, II:2-II:9-II:16, III:2-III:9-III:16 via TATA; linker I:10-II:10-III:10 via X2) [BCY8146] | 5.11 | 0.83
5 | CCCC[C@@H]1NC(=O)[C@H](Cc2ccc(O)cc2)NC(=O)[C@@H]2CCCN2C(=O)[C@H](CC(=O)O)NC(=O)[C@H](C)NC(=O)[C@H](Cc2ccccc2)NC(=O)[C@@H]2CSCCC(=O)N3CN(CN(C3)C(=O)CCSC[C@@H](C(=O)N[C@@H](C)C(N)=O)NC1=O)C(=O)CCSC[C@H](NC(=O)[C@H](C)NC(C)=O)C(=O)N[C@@H]([C@@H](C)CC)C(=O)N[C@@H](CCC(=O)O)C(=O)N[C@@H](CCC(=O)O)C(=O)N[C@H](CCCCNC(=O)OCC1C3CCc4nnn(CCOCCOCCOCCOCCOCCOCCOCCOCCOCCOCCNC(=O)CCOCCN(CCOCCC(=O)NCCOCCOCCOCCOCCOCCOCCOCCOCCOCCOCCn5nnc6c5CCC5C(CC6)C5COC(=O)NCCCC[C@H]5NC(=O)[C@H](CCC(=O)O)NC(=O)[C@H](CCC(=O)O)NC(=O)[C@H]([C@@H](C)CC)NC(=O)[C@@H](NC(=O)[C@H](C)NC(C)=O)CSCCC(=O)N6CN7CN(C6)C(=O)CCSC[C@H](NC(=O)[C@H](Cc6ccc(O)cc6)NC(=O)[C@H](CCC(N)=O)NC5=O)C(=O)N[C@@H](Cc5ccccc5)C(=O)N[C@@H](C)C(=O)N[C@@H](CC(=O)O)C(=O)N5CCC[C@H]5C(=O)N[C@@H](Cc5ccc(O)cc5)C(=O)N[C@@H](CCCC)C(=O)N[C@H](C(=O)N[C@@H](C)C(N)=O)CSCCC7=O)CCOCCC(=O)NCCOCCOCCOCCOCCOCCOCCOCCOCCOCCOCCn5nnc6c5CCC5C(CC6)C5COC(=O)NCCCC[C@H]5NC(=O)[C@H](CCC(=O)O)NC(=O)[C@H](CCC(=O)O)NC(=O)[C@H]([C@@H](C)CC)NC(=O)[C@@H](NC(=O)[C@H](C)NC(C)=O)CSCCC(=O)N6CN7CN(C6)C(=O)CCSC[C@H](NC(=O)[C@H](Cc6ccc(O)cc6)NC(=O)[C@H](CCC(N)=O)NC5=O)C(=O)N[C@@H](Cc5ccccc5)C(=O)N[C@@H](C)C(=O)N[C@@H](CC(=O)O)C(=O)N5CCC[C@H]5C(=O)N[C@@H](Cc5ccc(O)cc5)C(=O)N[C@@H](CCCC)C(=O)N[C@H](C(=O)N[C@@H](C)C(N)=O)CSCCC7=O)c4CCC31)C(=O)N[C@@H](CCC(N)=O)C(=O)N[C@@H](Cc1ccc(O)cc1)C(=O)N2 (stereo partly shown) [BCY8102] | 41.27 | 0.91
